Laboratory results: ChEMBL document CHEMBL4828778, “Novel Compounds as PHD Inhibitors for Treating Heart, Lung, Liver, and Kidney Diseases” (ACS Med Chem Lett, 2021)

Key:
Prolyl hydroxylase EGLN3 = Prolyl hydroxylase EGLN3 (Homo sapiens, UniProt Q9H6Z9); experiment: Inhibition of recombinant full length human N-terminal 6His-tagged PHD3 expressed Escherichia coli using HIF1/C35 complex as substrate preincubated for 30 mins followed by substrate addition measured after 10 mins by TR-FRET assay
Prolyl hydroxylase EGLN2 = Prolyl hydroxylase EGLN2 (Homo sapiens, UniProt Q96KS0); experiment: Inhibition of recombinant full length human N-terminal FLAG-tagged PHD1 expressed in baculovirus expression system using HIF1/C35 complex as substrate preincubated for 30 mins followed by substrate addition measured after 10 mins by TR-FRET assay
Egl nine homolog 1 = Egl nine homolog 1 (Homo sapiens, UniProt Q9GZT9); experiment: Inhibition of full length human N-terminal His-tagged/TEV cleavage fused PHD2 expressed in baculovirus infected insect cells using HIF1/C35 complex as substrate preincubated for 30 mins followed by substrate addition measured after 10 mins by TR-FRET assay

Measured: IC50

Prolyl hydroxylase EGLN2, sequence (Q96KS0 whole entry, the tested form may be a part): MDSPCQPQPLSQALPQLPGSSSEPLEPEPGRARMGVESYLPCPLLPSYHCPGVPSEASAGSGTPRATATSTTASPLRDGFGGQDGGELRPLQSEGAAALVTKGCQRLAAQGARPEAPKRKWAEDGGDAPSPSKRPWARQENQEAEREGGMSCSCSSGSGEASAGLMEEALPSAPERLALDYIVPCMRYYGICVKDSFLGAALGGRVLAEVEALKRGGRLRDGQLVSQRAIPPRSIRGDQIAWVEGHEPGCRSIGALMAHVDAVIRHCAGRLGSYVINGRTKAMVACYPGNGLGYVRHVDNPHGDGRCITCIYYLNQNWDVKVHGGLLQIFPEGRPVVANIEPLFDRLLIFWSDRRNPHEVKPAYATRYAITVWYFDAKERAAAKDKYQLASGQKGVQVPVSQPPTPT
Egl nine homolog 1, sequence (Q9GZT9 whole entry, the tested form may be a part): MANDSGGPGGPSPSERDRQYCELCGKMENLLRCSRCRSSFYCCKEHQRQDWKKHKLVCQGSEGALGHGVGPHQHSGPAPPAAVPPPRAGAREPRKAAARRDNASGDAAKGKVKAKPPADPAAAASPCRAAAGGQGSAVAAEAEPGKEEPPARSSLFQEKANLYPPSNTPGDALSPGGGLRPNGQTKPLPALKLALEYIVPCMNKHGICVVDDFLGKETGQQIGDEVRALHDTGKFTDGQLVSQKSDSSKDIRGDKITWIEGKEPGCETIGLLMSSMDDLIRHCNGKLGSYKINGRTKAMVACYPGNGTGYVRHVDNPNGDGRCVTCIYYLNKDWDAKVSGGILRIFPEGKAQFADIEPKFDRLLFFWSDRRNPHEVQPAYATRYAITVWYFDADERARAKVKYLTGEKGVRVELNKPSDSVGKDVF
Prolyl hydroxylase EGLN3, sequence (Q9H6Z9 whole entry): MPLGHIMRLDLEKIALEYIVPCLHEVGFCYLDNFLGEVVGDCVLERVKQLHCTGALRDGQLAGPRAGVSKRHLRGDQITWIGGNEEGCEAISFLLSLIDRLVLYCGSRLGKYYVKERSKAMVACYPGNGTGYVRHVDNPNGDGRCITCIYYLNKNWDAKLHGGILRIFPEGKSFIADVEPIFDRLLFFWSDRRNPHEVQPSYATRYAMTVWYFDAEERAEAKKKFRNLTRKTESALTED

N#Cc1ccc(-c2cnn(-c3ccc(N4CCCC4=O)cn3)c2O)cc1
< 100 nM: Prolyl hydroxylase EGLN3 | Prolyl hydroxylase EGLN2 | Egl nine homolog 1

N#Cc1ccc(-c2cnn(-c3ccc(-c4nccs4)cn3)c2O)cc1
< 100 nM: Prolyl hydroxylase EGLN3 | Prolyl hydroxylase EGLN2 | Egl nine homolog 1

CCC(=O)Nc1ccc(-n2ncc(-c3ccc(C#N)cc3)c2O)nc1
< 100 nM: Prolyl hydroxylase EGLN3 | Prolyl hydroxylase EGLN2 | Egl nine homolog 1

CCS(=O)(=O)Nc1ccc(-n2ncc(-c3ccc(C#N)cc3)c2O)nc1
< 100 nM: Prolyl hydroxylase EGLN3 | Prolyl hydroxylase EGLN2 | Egl nine homolog 1

CS(=O)(=O)c1ccc(-n2ncc(-c3ccc(C#N)cc3)c2O)nc1
< 100 nM: Prolyl hydroxylase EGLN3 | Prolyl hydroxylase EGLN2 | Egl nine homolog 1

CC(=O)c1ccc(-n2ncc(-c3ccc(C#N)cc3)c2O)nc1
< 100 nM: Prolyl hydroxylase EGLN3 | Prolyl hydroxylase EGLN2 | Egl nine homolog 1
